This is an account of results in ChEMBL document CHEMBL1136880, “Discovery of N-aryl-9-oxo-9H-fluorene-1-carboxamides as a new series of apoptosis inducers using a cell- and caspase-based high-throughput screening assay. 1. Structure-activity relationships of the carboxamide group” (Bioorg Med Chem Lett, 2009).

In brackets after ≈: the same amount, converted by molar mass. Activity calls are given as the source filed them. No cut-off for these calls is given here.

Data set [1] relates to HCT-116. Description: Induction of apoptosis in human HCT116 cells after 48 hrs. The settings on record: HCT-116, 48 h. Type of data set: functional, cell-based.
Data set [2] concerns T47D. Put plainly: Induction of apoptosis in human T47D cells after 48 hrs. Type of data set: functional, cell-based.
In data set [3] the test system is SNU-398. Description: Induction of apoptosis in human SNU398 cells after 48 hrs. Format: functional, cell-based. The settings on record: SNU-398, 48 h.
Data set [4] has as its system T47D. Description: Growth inhibition of human T47D cells after 48 hrs. Format: functional.
Data set [5] deals with HCT-116. Description: Growth inhibition of human HCT116 cells after 48 hrs. Format: functional. The conditions noted are these: HCT-116, 48 h.
In data set [6] the test system is SNU-398. Put plainly: Growth inhibition of human SNU398 cells after 48 hrs. Type of data set: functional. The settings on record: SNU-398, 48 h.
Data set [7] deals with HCT-116. Put plainly: Cell cycle arrest in human HCT116 cells assessed as accumulation at subG1 phase at 2 uM after 24 hrs by flow cytometry. Format: functional. (In general: In flow cytometry, cells or beads pass a laser one at a time.)
Data set [8] concerns HCT-116. Put plainly: Cell cycle arrest in human HCT116 cells assessed as accumulation at S phase at 2 uM after 24 hrs by flow cytometry. Format: functional.
The subject of data set [9] is HCT-116. Put plainly: Cell cycle arrest in human HCT116 cells assessed as accumulation at G1 phase at 2 uM after 48 hrs by flow cytometry. Format: functional.
Data set [10] has as its system HCT-116. Description: Cell cycle arrest in human HCT116 cells assessed as accumulation at G2/M phase at 2 uM after 48 hrs by flow cytometry. Format: functional.
Data set [11] relates to HCT-116. Description: Cell cycle arrest in human HCT116 cells assessed as accumulation at G1 phase at 2 uM after 24 hrs by flow cytometry. Format: functional.
Data set [12] has as its system HCT-116. Description: Cell cycle arrest in human HCT116 cells assessed as accumulation at S phase at 2 uM after 48 hrs by flow cytometry. Type of data set: functional.
The subject of data set [13] is HCT-116. Description: Cell cycle arrest in human HCT116 cells assessed as accumulation at G2/M phase at 2 uM after 24 hrs by flow cytometry. Format: functional.
In data set [14] the test system is HCT-116. Description: Cell cycle arrest in human HCT116 cells assessed as accumulation at subG1 phase at 2 uM after 48 hrs by flow cytometry. Format: functional.
Data set [15] can be described thus: Inhibition of tubulin polymerization by DAPI staining method.
Data set [16] is described as follows: Solubility in buffer solution containing ethanol:Cremophor:D5W of 12.5:12.5:75. Format: physicochemical.

On to `O=C(NCc1ccccc1Cl)c1cccc2c1C(=O)c1ccccc1-2`, for which the concentration giving a half-maximal response (EC50) in [1], in data set [2] and in data set [3] was more than 10 µM throughout.

For `O=C(Nc1ccccc1-n1cccc1)c1cccc2c1C(=O)c1ccccc1-2`, the concentration for a half-maximal effect (EC50) (commonly the concentration giving half of the maximal effect) in [1] was 6.3 µM; in data set [2], 5.9 µM; in data set [3] it was 5.5 µM.

Regarding `O=C(Nc1ccccc1-n1ccnc1)c1cccc2c1C(=O)c1ccccc1-2`, the EC50 in [1], in [2] and in [3] was more than 10 µM in each case.

In the case of `Cc1cccnc1NC(=O)c1cccc2c1C(=O)c1ccccc1-2`, the EC50 in data set [1], in data set [2] and in data set [3] was more than 10 µM throughout.

On to `O=C(Nc1ccccc1N1CCOCC1)c1cccc2c1C(=O)c1ccccc1-2`, for which the figures for the concentration for a half-maximal effect (EC50) in [1], in data set [2] and in [3] were 5.2 µM, 5.3 µM and 3.9 µM, respectively.

Turning to `CCOc1ccccc1NC(=O)c1cccc2c1C(=O)c1ccccc1-2`, the values for the EC50 in data set [1], in data set [2] and in [3] were 1.6 µM, 2.9 µM and 0.96 µM, respectively. In addition, the GI50 (usually the concentration that inhibits growth by half) in data set [4] was 0.45 µM; in [5], 0.4 µM; in [6], 0.27 µM.

As for `Nc1ccccc1NC(=O)c1cccc2c1C(=O)c1ccccc1-2`, the EC50 in data set [1], in data set [2] and in [3] was more than 10 µM each time.

For `Cc1cccc(C)c1NC(=O)c1cccc2c1C(=O)c1ccccc1-2`, the EC50 in data set [1], in data set [2] and in data set [3] was more than 10 µM each time.

Consider `COc1ccccc1CNC(=O)c1cccc2c1C(=O)c1ccccc1-2`, for which the EC50 in data set [1], in [2] and in data set [3] was more than 10 µM in each case.

On to `O=C(Nc1ccccc1CBr)c1cccc2c1C(=O)c1ccccc1-2`, for which the EC50 in data set [1] came to 10.7 µM; in [2], 4.7 µM; in data set [3] it was 7.2 µM.

As to `O=C(Nc1ccccc1)c1cccc2c1C(=O)c1ccccc1-2`, the values for the EC50 in data set [1], in [2] and in data set [3] were more than 10 µM, 4.4 µM and more than 10 µM, respectively.

On to `O=C(Nc1ccccc1N1CCCCC1)c1cccc2c1C(=O)c1ccccc1-2`, for which the concentration giving a half-maximal response (EC50) in data set [1] came to 2.6 µM; in [2], 2.8 µM; in data set [3] it was 2.1 µM.

Regarding `Cc1ccccc1NC(=O)c1cccc2c1C(=O)c1ccccc1-2`, the half-maximal effective concentration (EC50) was found to be 1.1 µM in data set [1], 0.98 µM in data set [2] and 0.64 µM in data set [3]. The Activity in data set [7] worked out at 8%; in data set [8] it was 10%; in data set [9], 29%; in data set [10] it was 16%; in [11], 32%; in data set [12], 11%. The Activity in data set [13] is 48%; in data set [14] it was 41%. The GI50 in data set [4] is 0.18 µM; in data set [5], 0.36 µM; in data set [6], 0.3 µM. In addition, in data set [15], the 50% inhibitory concentration (IC50) (commonly the concentration that gives 50% inhibition) is reported as “Not Active”.

For the molecule `CN(C)c1ccccc1NC(=O)c1cccc2c1C(=O)c1ccccc1-2`, the EC50 came to 1.2 µM in data set [1], 0.98 µM in data set [2] and 0.83 µM in [3]. In [16], the solubility (in general, the concentration that dissolves in the medium under given conditions) is 6100 µg/mL (≈ 17.8 mM).

As for `O=C(Nc1ccccc1-c1nnn[nH]1)c1cccc2c1C(=O)c1ccccc1-2`, the EC50 in data set [1], in [2] and in data set [3] was more than 10 µM in each case.

Regarding `O=C(Nc1ccccc1Cl)c1cccc2c1C(=O)c1ccccc1-2`, the EC50 came to 0.56 µM in data set [1], 0.47 µM in data set [2] and 0.41 µM in [3]. The GI50 in data set [4] worked out at 0.23 µM; in [5], 0.54 µM; in data set [6], 0.53 µM.

As for `O=C(Nc1ccccc1Br)c1cccc2c1C(=O)c1ccccc1-2`, the concentration giving a half-maximal response (EC50) is 2.7 µM in data set [1], 2.3 µM in [2] and 2.2 µM in [3].

Regarding `Cc1cccc(NC(=O)c2cccc3c2C(=O)c2ccccc2-3)c1`, the concentration giving a half-maximal response (EC50) in data set [1], in data set [2] and in data set [3] was more than 10 µM each time.

In the case of `COc1cc2c(c(OC)c1OC)-c1ccc(OC)c(=O)cc1[C@@H](NC(C)=O)CC2` [COLCHICINE], the 50% inhibitory concentration (IC50) in [15] (read-out: IC50) stood at 0.5 µM.

Regarding `COc1ccccc1NC(=O)c1cccc2c1C(=O)c1ccccc1-2`, the EC50 in data set [1] is 7.5 µM; in data set [2] it was 0.62 µM; in [3], 4.9 µM.

Consider `CN(C)Cc1ccccc1NC(=O)c1cccc2c1C(=O)c1ccccc1-2`, for which the half-maximal effective concentration (EC50) in data set [1] worked out at 0.94 µM; in data set [2], 1.4 µM; in data set [3] it was 0.71 µM.

In the case of `Cc1ccccc1C(=O)Nc1cccc2c1C(=O)c1ccccc1-2`, the EC50 in data set [1] is 2.2 µM; in data set [2] it was 2.1 µM; in [3], 1.3 µM.

Take `N#Cc1ccccc1NC(=O)c1cccc2c1C(=O)c1ccccc1-2`: the 50% effective concentration (EC50) in data set [1], in [2] and in [3] was more than 10 µM throughout.

With `O=C(Nc1ccccc1O)c1cccc2c1C(=O)c1ccccc1-2`, the EC50 in [1], in [2] and in data set [3] was more than 10 µM each time.

`CN1CCN(Cc2ccccc2NC(=O)c2cccc3c2C(=O)c2ccccc2-3)CC1`: the 50% effective concentration (EC50) in [1], in data set [2] and in [3] was more than 10 µM in each case.

As for `Cc1ccc(NC(=O)c2cccc3c2C(=O)c2ccccc2-3)cc1`, the EC50 in data set [1] was more than 10 µM; in data set [2] it was 4.6 µM; in [3], more than 10 µM.

As for `CC1CCCCC1NC(=O)c1cccc2c1C(=O)c1ccccc1-2` (stereo not given), the half-maximal effective concentration (EC50) in data set [1], in [2] and in data set [3] was more than 10 µM throughout.

Regarding `O=C(Nc1ccccc1F)c1cccc2c1C(=O)c1ccccc1-2`, the values for the EC50 in [1], in data set [2] and in data set [3] were more than 10 µM, 1.8 µM and more than 10 µM, respectively.

Regarding `COC(=O)c1ccccc1NC(=O)c1cccc2c1C(=O)c1ccccc1-2`, the figures for the concentration for a half-maximal effect (EC50) in data set [1], in [2] and in data set [3] were 0.52 µM, 2.4 µM and 0.34 µM, respectively. In addition, the 50% growth inhibitory concentration (GI50) is 0.18 µM in data set [4], 0.48 µM in [5] and 0.31 µM in data set [6].

Regarding `O=C(Nc1ccccc1-c1ccccc1)c1cccc2c1C(=O)c1ccccc1-2`, the results for the half-maximal effective concentration (EC50) in data set [1], in data set [2] and in data set [3] were 1.8 µM, 1.7 µM and 1.7 µM, respectively. For the same molecule, the GI50 stood at 0.21 µM in [4], 0.58 µM in data set [5] and 0.35 µM in data set [6].

Turning to `COc1ccc(NC(=O)c2cccc3c2C(=O)c2ccccc2-3)cc1`, the EC50 in data set [1] was more than 10 µM; in [2], 3.7 µM; in data set [3], more than 10 µM.

Take `O=C(Nc1nccs1)c1cccc2c1C(=O)c1ccccc1-2`: the concentration giving a half-maximal response (EC50) in [1], in [2] and in data set [3] was more than 10 µM each time.

As for `O=C(Nc1ccccc1[N+](=O)[O-])c1cccc2c1C(=O)c1ccccc1-2`, the EC50 is 5.5 µM in data set [1], 2.5 µM in data set [2] and 2.6 µM in [3].

On to `[N-]=[N+]=Nc1ccccc1NC(=O)c1cccc2c1C(=O)c1ccccc1-2`, for which the EC50 in [1] amounted to 3.6 µM; in data set [2], 3.5 µM; in [3], 4.4 µM.

Consider `CC[C@]1(O)C[C@@H]2CN(CCc3c([nH]c4ccccc34)[C@@](C(=O)OC)(c3cc4c(cc3OC)N(C)[C@H]3[C@@](O)(C(=O)OC)[C@H](OC(C)=O)[C@]5(CC)C=CCN6CC[C@]43[C@@H]65)C2)C1` [VINBLASTINE], for which the half-maximal inhibitory concentration (IC50) in [15] (read-out: IC50) was determined as 0.5 µM.

Consider `O=C(Nc1ccccc1-n1cccn1)c1cccc2c1C(=O)c1ccccc1-2`, for which the values for the EC50 in data set [1], in [2] and in [3] were 1.3 µM, 1.4 µM and 1.1 µM, respectively. The outcome in data set [7], in [8], in data set [9], in data set [10], in data set [11] and in [12] was Active. For the same molecule, the result in data set [13] and in data set [14] was Active. Further, the concentration for 50% growth inhibition (GI50) in data set [4] is 0.16 µM; in data set [5] it was 1.1 µM; in [6], 0.78 µM. The molecule further displayed a solubility in data set [16] of 6100 µg/mL (≈ 16.7 mM). In addition, in data set [15], the half-inhibitory concentration (IC50) entry was “Not Active”.

For the molecule `Cc1ccccc1N(C)C(=O)c1cccc2c1C(=O)c1ccccc1-2`, the EC50 in data set [1], in data set [2] and in data set [3] was more than 10 µM in each case.

With `O=C(Nc1cccnc1)c1cccc2c1C(=O)c1ccccc1-2`, the half-maximal effective concentration (EC50) in data set [1], in [2] and in [3] was more than 10 µM each time.

Consider `O=C(Nc1ccccc1OCF)c1cccc2c1C(=O)c1ccccc1-2`, for which the EC50 turned out to be 2.3 µM in data set [1], 0.48 µM in [2] and 1.5 µM in data set [3].

As for `Cc1ccncc1NC(=O)c1cccc2c1C(=O)c1ccccc1-2`, the EC50 in data set [1], in data set [2] and in [3] was more than 10 µM each time.

Turning to `CN(C(=O)c1cccc2c1C(=O)c1ccccc1-2)c1ccccc1-n1cccn1`, the EC50 in data set [1], in [2] and in data set [3] was more than 10 µM throughout.

As for `O=C(Nc1ccccn1)c1cccc2c1C(=O)c1ccccc1-2`, the concentration giving a half-maximal response (EC50) in data set [1], in data set [2] and in [3] was more than 10 µM each time.
